Measurements reported in PubChem BioAssay (NCI).
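Interpolation was linear, between the two tested concentrations surrounding the appropriate level; five concentrations were tested over 48 hours in 96-well plates. GI50 is the concentration that inhibits growth by half. The concentration for full growth arrest is given as TGI.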

Legend:
Assay in all cases: DTP human tumour cell line panel, 48 h
ACHN renal = system: ACHN renal
HCC-2998 colon = system: HCC-2998 colon
OVCAR-8 ovarian = system: OVCAR-8 ovarian
A498 renal = system: A498 renal
HL-60(TB) leukemia = system: HL-60(TB) leukemia
SF-539 CNS = system: SF-539 CNS
SR leukemia = system: SR leukemia
UACC-62 melanoma = system: UACC-62 melanoma
HOP-92 NSCLC = system: HOP-92 NSCLC
SK-MEL-5 melanoma = system: SK-MEL-5 melanoma

SMILES	GI50 (ACHN renal)	TGI (ACHN renal)	GI50 (HCC-2998 colon)	TGI (HCC-2998 colon)	GI50 (OVCAR-8 ovarian)	TGI (OVCAR-8 ovarian)	GI50 (A498 renal)	TGI (A498 renal)	GI50 (HL-60(TB) leukemia)	TGI (HL-60(TB) leukemia)	GI50 (SF-539 CNS)	TGI (SF-539 CNS)	GI50 (SR leukemia)	TGI (SR leukemia)	TGI (UACC-62 melanoma)	TGI (HOP-92 NSCLC)	TGI (SK-MEL-5 melanoma)
COC12C=C/C(=C(/C(=O)OCc3ccncn3)C(=O)CCCCCCCCC3(OC)C=C/C(=C(/C(=O)OCc4ccncn4)C(=O)CCCCCCCC1)O3)O2	0.302 µM	1.14 µM	0.225 µM	0.45 µM	0.331 µM	14.9 µM	0.252 µM	0.833 µM	0.298 µM	1.4 µM	0.354 µM	2.66 µM	0.296 µM	> 100 µM	–	–	–
CC(C)(C)c1cc(C(O)(C(=O)O)C(=O)O)cc(C(C)(C)C)c1O	–	> 100 µM	–	–	–	> 100 µM	–	> 100 µM	–	> 100 µM	–	> 100 µM	–	> 100 µM	> 100 µM	> 100 µM	> 100 µM
C=CCOc1ccc(C2c3c([nH][nH]c3=O)CC(O)(OCC)C2C(=O)OCC)cc1OC (stereo not drawn)	–	> 100 µM	–	> 100 µM	–	> 100 µM	–	> 100 µM	–	> 100 µM	–	> 100 µM	–	–	–	> 100 µM	> 100 µM
COc1cc2c(cc1OCCCC(=O)Nc1cc(C(=O)Nc3cc(C(=O)Nc4cc(C(=O)NCCCN(C)C)n(C)c4)n(C)c3)n(C)c1)N=C[C@@H]1CCCN1C2=O	–	2.99 µM	–	28.2 µM	–	3.21 µM	–	26.4 µM	–	3.42 µM	–	8.72 µM	–	–	6.53 µM	3.38 µM	6.65 µM
COc1ccc2oc(S(=O)(=O)N3CC(CCl)c4ccc([N+](=O)[O-])cc43)cc2c1 (stereo not drawn)	–	> 48.1 µM	–	2.62 µM	–	4.36 µM	–	2.82 µM	–	–	–	0.308 µM	–	> 100 µM	> 37.6 µM	> 73.8 µM	5.45 µM
N#CCCNCCN(CCN(C(=O)Nc1ccccc1)c1ccccc1)C(=O)Nc1ccccc1	–	> 100 µM	–	36 µM	–	> 100 µM	–	> 100 µM	–	> 100 µM	–	–	–	> 100 µM	> 100 µM	> 100 µM	45 µM
COc1ccc2c(c1)OCC1(O)Cc3ccccc3OC21 (stereo not drawn)	–	> 100 µM	–	> 100 µM	–	> 100 µM	–	> 100 µM	–	–	–	> 100 µM	–	> 100 µM	> 100 µM	> 100 µM	> 100 µM
Cc1cc2c(cc1-c1cc3c(cc1C)C(C(C)C)=C(O)C(=O)/C3=C\Nc1nc(-c3ccccc3)cs1)/C(=C/Nc1nc(-c3ccccc3)cs1)C(=O)C(O)=C2C(C)C	–	31.2 µM	–	–	–	77 µM	–	98.6 µM	–	> 100 µM	–	43.9 µM	–	> 100 µM	35.7 µM	55.7 µM	31.4 µM
O=S(=O)(c1ccccc1)n1c(C(O)c2ccncc2)cc2ccccc21 (stereo not drawn)	–	> 100 µM	–	–	–	> 100 µM	–	> 100 µM	–	–	–	> 100 µM	–	> 100 µM	98.9 µM	> 100 µM	35.4 µM
CC/C(Cl)=N\OC(=O)Nc1ccc(OC)cc1	–	3.5 µM	–	15.7 µM	–	37.4 µM	–	37 µM	–	4.36 µM	–	9.51 µM	–	–	24.6 µM	5.98 µM	14.6 µM
CCOC(=O)C1=CN=C2C(=O)N(c3ccccc3)N(C)C2(C)C1=N (stereo not drawn)	–	> 100 µM	–	> 100 µM	–	> 100 µM	–	> 100 µM	–	> 100 µM	–	> 100 µM	–	–	> 100 µM	> 100 µM	> 100 µM
O=C1COC(c2ccccc2O)=NN1CCCN1CCCC1	–	> 100 µM	–	–	–	> 100 µM	–	> 100 µM	–	–	–	> 100 µM	–	> 100 µM	> 100 µM	> 100 µM	> 100 µM
CCOC(=O)C(=[N+]=[N-])C(=O)C[N+]12CCN(CC1)CC2	–	> 100 µM	–	> 100 µM	–	> 100 µM	–	> 100 µM	–	–	–	–	–	> 100 µM	> 100 µM	> 100 µM	> 100 µM
CCCC(Sc1nc(N)nc2nc[nH]c12)C(=O)O (stereo not drawn)	–	> 100 µM	–	76.9 µM	–	> 100 µM	–	> 100 µM	–	> 100 µM	–	–	–	–	> 100 µM	> 100 µM	> 100 µM
O=C1C=Cc2c(Cl)sc(Cl)c21	–	3.16 µM	–	13.8 µM	–	–	–	16.1 µM	–	–	–	–	–	–	8.64 µM	–	8.09 µM
Cc1ccccc1N=C(N)NC#N	–	> 100 µM	–	> 100 µM	–	> 100 µM	–	–	–	> 100 µM	–	> 100 µM	–	> 100 µM	> 100 µM	> 100 µM	> 100 µM
O=[N+]([O-])C(/C(Cl)=C(/Cl)N1CCOCC1)=C1\NCCO1	–	> 100 µM	–	> 100 µM	–	> 100 µM	–	> 100 µM	–	–	–	> 100 µM	–	–	> 100 µM	–	–
c1ccc2c(c1)c1c(n2CCOCCN2CCCCC2)CCCC1	–	27.7 µM	–	23.6 µM	–	28.4 µM	–	–	–	8.33 µM	–	31.7 µM	–	36 µM	28.7 µM	22.3 µM	21.1 µM
CC1(C)CCC[C@]2(C)[C@@H]1CC[C@@]13O[C@@H]1C1=C(CO)C(=O)O[C@]14O[C@@H]4[C@@H]23	–	30.2 µM	–	40.5 µM	–	26.7 µM	–	32.9 µM	–	–	–	37.6 µM	–	> 100 µM	37.7 µM	29.3 µM	31.7 µM
C[C@]12CC[C@H]3[C@@H](CCC4=CC(=O)C=C[C@@]43O)[C@@H]1CCC2=O	–	> 100 µM	–	> 100 µM	–	> 100 µM	–	> 100 µM	–	–	–	> 100 µM	–	> 100 µM	> 100 µM	> 100 µM	> 100 µM
COc1ccc(-c2oc3ccc(C)cc3c(=O)c2O)cc1	–	> 100 µM	–	> 100 µM	–	79.3 µM	–	> 100 µM	–	> 100 µM	–	> 100 µM	–	–	> 100 µM	> 100 µM	> 100 µM
O=C(O)CC(NC(=O)Nc1ccc([N+](=O)[O-])cc1)C(=O)Nc1ccc([N+](=O)[O-])cc1 (stereo not drawn)	–	> 100 µM	–	> 100 µM	–	> 100 µM	–	> 100 µM	–	–	–	> 100 µM	–	–	> 100 µM	–	> 100 µM
CC(=O)N1N=C(c2c(O)ccc3ccccc23)CC1C(=O)c1ccco1 (stereo not drawn)	–	> 100 µM	–	> 100 µM	–	> 100 µM	–	> 100 µM	–	–	–	66.9 µM	–	45.3 µM	32.8 µM	> 100 µM	89.9 µM
